From US20100292289A1 (priority 2007, published 2010)

Experiments:
Type in all cases: cell-based
GLP-1 receptor [1] = target: T1, GLP-1 receptor (Homo sapiens, UniProt P43220); experiment: FLIPR calcium flux assay, antagonist format, GLP-1; settings: 1 μM, reference ligand Glucagon at EC80 as 0% inhibition; for inhibition at 1 µM: read-out: % Inhibition Antagonist GLP-1
Protocol: (§1) A FLIPR assay was conducted to monitor agonist and antagonist selectivity for compounds of the invention against the CBI and GLP-1 receptors. Percentage activation and percentage inhibition values were determined for each compound on each of the GPCRs listed above. Agonist selectivity was determined upon initial addition of compounds followed by 10 minute incubation at 25° C. Following compound incubation, reference agonists were added at EC80 to determine percentage inhibition.
(§2) Agonist percentage activation determinations were obtained by assaying sample compounds and referencing the Emax control for each of the GPCRs profiled. Antagonist percentage inhibition determinations were obtained by assaying sample compounds and referencing the control EC80 wells for each of the GPCRs profiled. The protocol design is as follows:
(§3) Unless specified otherwise, all sample compounds were diluted in 100% anhydrous DMSO including all serial dilutions. Occasionally sample compounds were provided in a different solvent, in this case all master stock dilutions were performed in the specified diluent. All control wells contained identical solvent final concentrations as sample compound wells.
(§4) Sample compounds were transferred from a master stock solution into a daughter plate that was used in the assay. Each sample compound was diluted into assay buffer (1×HBSS with 20 mM HEPES) at an appropriate concentration to obtain final concentrations.
(§5) Using the EC50 values determined previously, stimulated all pre-incubated sample compound and reference antagonist (if applicable) wells with EC80 of reference agonist. Read for 90 seconds using the FLIPRTETRA. (This assay added reference agonist to respective wells—then fluorescence measurements were collected to calculate percentage inhibition.)
(§6) All plates were subjected to appropriate baseline corrections. Once baseline corrections were processed, maximum fluorescence values were exported and data manipulated to calculate percentage activation, percentage inhibition, Z′, EC50, and IC50. Percentage activation data was calculated using Emax as 100% control. Percentage inhibition was calculated using EC80 as 0% inhibition.

GLP-1 receptor [2] = target: T1, GLP-1 receptor; experiment: FLIPR calcium flux assay, agonist format, GLP-1; settings: Emax of reference ligand Glucagon as 100%; for % Activation Agonist GLP-1: 1 μM
Protocol: as §1, §2, §3, §4
(§7) All sample compounds were plated at 1 μM in duplicate for assaying against all GPCRs. Reference agonists were handled as mentioned above serving as assay control. These reference agonists were handled as described above for both EMax and EC80 control wells. Assay was read for 90 seconds using the FLIPRTETRA. (This assay run added sample compounds and reference agonist to respective rows.) At the completion of the first “Single Addition” assay run, assay plate was removed from the FLIPRTetra and placed at 25° C. for 10 minutes.
as §6

CB1 receptor [3] = target: T2, CB1 receptor (Homo sapiens, UniProt P21554); experiment: FLIPR calcium flux assay, agonist format, CB1; settings: Emax of reference agonist CP-55,940 as 100%; for % Activation Agonist CB1: 1 μM
T2 sequence (P21554 whole entry): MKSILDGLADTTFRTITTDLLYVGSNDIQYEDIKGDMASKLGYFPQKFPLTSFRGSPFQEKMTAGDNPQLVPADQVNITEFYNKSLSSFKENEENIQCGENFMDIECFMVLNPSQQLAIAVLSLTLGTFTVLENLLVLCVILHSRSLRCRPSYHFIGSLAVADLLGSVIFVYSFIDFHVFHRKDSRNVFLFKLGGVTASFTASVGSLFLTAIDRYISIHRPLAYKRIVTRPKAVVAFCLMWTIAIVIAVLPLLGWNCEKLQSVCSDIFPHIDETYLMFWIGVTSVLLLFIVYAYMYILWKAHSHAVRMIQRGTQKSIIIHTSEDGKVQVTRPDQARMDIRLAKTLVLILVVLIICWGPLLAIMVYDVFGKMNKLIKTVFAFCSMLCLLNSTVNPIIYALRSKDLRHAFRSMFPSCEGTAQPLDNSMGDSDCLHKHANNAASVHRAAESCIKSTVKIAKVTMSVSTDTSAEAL
Protocol: as §1, §2, §3, §4, §7, §6

CB1 receptor [4] = target: T2, CB1 receptor; experiment: FLIPR calcium flux assay, antagonist format, CB1; settings: reference agonist CP-55,940 at EC80 as 0% inhibition; for % Inhibition Antagonist CB1: 1 μM
Protocol: as §1, §2, §3, §4, §5, §6

T1 sequence (P43220 24-463): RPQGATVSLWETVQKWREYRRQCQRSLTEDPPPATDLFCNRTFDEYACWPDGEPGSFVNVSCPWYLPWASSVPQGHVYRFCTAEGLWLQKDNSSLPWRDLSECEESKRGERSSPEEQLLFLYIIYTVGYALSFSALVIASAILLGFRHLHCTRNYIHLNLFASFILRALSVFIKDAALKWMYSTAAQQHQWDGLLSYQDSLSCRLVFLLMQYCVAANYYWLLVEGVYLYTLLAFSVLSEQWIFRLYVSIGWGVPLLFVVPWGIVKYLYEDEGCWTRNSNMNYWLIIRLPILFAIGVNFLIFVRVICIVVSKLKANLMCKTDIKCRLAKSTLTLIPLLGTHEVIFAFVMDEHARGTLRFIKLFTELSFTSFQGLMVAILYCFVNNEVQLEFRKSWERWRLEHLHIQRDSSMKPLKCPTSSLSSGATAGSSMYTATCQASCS

Row | SMILES | inhibition at 1 µM (GLP-1 receptor [1]) [%] | activation at 1 µM (GLP-1 receptor [2]) [%] | activation at 1 µM (CB1 receptor [3]) [%] | inhibition at 1 µM (CB1 receptor [4]) [%] | % Inhibition Antagonist GLP-1 (GLP-1 receptor [1]) [%] | % Activation Agonist GLP-1 (GLP-1 receptor [2]) [%] | % Activation Agonist CB1 (CB1 receptor [3]) [%] | % Inhibition Antagonist CB1 (CB1 receptor [4]) [%]
1 | CC(C(=O)N(C)CC[C@H](Oc1ccc(C(F)(F)F)cc1)c1ccccc1)c1ccc(C(F)(F)F)cc1 (some centres unmarked) [Compound 33b] | ~0 | 17.6 | 0.5 | 45.8 | – | – | – | –
2 | CC(C(=O)N(C)CC[C@@H](Oc1ccc(C(F)(F)F)cc1)c1ccccc1)c1ccc(C(F)(F)F)cc1 (some centres unmarked) [Compound 33a] | – | – | – | – | 11.4 | 0.9 | −0.3 | 90.7
3 | CC(C)Cc1ccc(CC(=O)N(C)CC[C@@H](Oc2ccc(C(F)(F)F)cc2)c2ccccc2)cc1 [Compound 32a] | 0.8 | 2.9 | 4.5 | 90.7 | – | – | – | –
4 | C[C@H](C(=O)N(C)CC[C@@H](Oc1ccc(C(F)(F)F)cc1)c1ccccc1)c1ccc(C(F)(F)F)cc1 [Compound 33d] | 11.4 | 0.6 | 1.4 | 82.8 | – | – | – | –
5 | CN(CCC(Oc1ccc(C(F)(F)F)cc1)c1ccccc1)C(=O)C1CCn2c(C(=O)c3ccccc3)ccc21 (centres unmarked) [Compound 13] | -15.4 | 0.8 | 0.9 | 37.7 | – | – | – | –
6 | O=C(Cc1nc(-c2ccc(C(F)(F)F)cc2)no1)NCC[C@@H](Oc1ccc(C(F)(F)F)cc1)c1ccccc1 [Compound 23] | – | – | – | – | – | 11.9 | 7.8 | –
7 | O=C(c1ccccc1)c1ccc2n1CCC2C(=O)NCC[C@@H](Oc1ccc(C(F)(F)F)cc1)c1ccccc1 (some centres unmarked) [Compound 5a] | -6.3 | 0.4 | 0.3 | 48.7 | – | – | – | –
8 | C[C@H]1CCN(C(C(=O)NCC[C@@H](Oc2ccc(C(F)(F)F)cc2)c2ccccc2)c2nc(-c3ccc(C(F)(F)F)cc3)no2)C[C@@H]1COc1ccc(C(F)(F)F)cc1 (some centres unmarked) [Compound 17] | – | – | – | – | – | 9.4 | 8.6 | –
9 | CC(C(=O)N(C)CC[C@H](Oc1ccc(C(F)(F)F)cc1)c1ccccc1)c1ccc(CC2CCCC2=O)cc1 (some centres unmarked) [Compound 29b] | – | – | – | – | 0.0 | 6.2 | −0.2 | 31.2
10 | CC(C)Cc1ccc(CC(=O)N(C)CC[C@H](Oc2ccc(C(F)(F)F)cc2)c2ccccc2)cc1 [Compound 32b] | – | – | – | – | −0.8 | −1.8 | 2.1 | 23.0
11 | CC(C)Cc1ccc(C2(C(=O)N(C)CC[C@@H](Oc3ccc(C(F)(F)F)cc3)c3ccccc3)CCC2)cc1 [Compound 30a] | – | – | – | – | 7.5 | −3.7 | 1.0 | 84.6
12 | CCc1ccc(C(C)C(=O)N(C)CC[C@@H](Oc2ccc(C(F)(F)F)cc2)c2ccccc2)cc1 (some centres unmarked) [Compound 34a] | -1 | -0.8 | -2.9 | 99 | – | – | – | –
13 | CC(C(=O)N(C)CC[C@@H](Oc1ccc(C(F)(F)F)cc1)c1ccccc1)c1ccc(CN(C)C)cc1 (some centres unmarked) [Compound 25a] | 5.7 | -2.7 | 0.8 | 79.9 | – | – | – | –
14 | O=C(NCC[C@@H](Oc1ccc(C(F)(F)F)cc1)c1ccccc1)C(c1nc(-c2ccc(C(F)(F)F)cc2)no1)N1CCC[C@@H](COc2ccc(C(F)(F)F)cc2)C1 (some centres unmarked) [Compound 19] | – | – | – | – | – | 6.5 | 0.5 | –
15 | CC(C)Cc1ccc(C2(C(=O)N(C)CC[C@H](Oc3ccc(C(F)(F)F)cc3)c3ccccc3)CCC2)cc1 [Compound 30b] | – | – | – | – | 9.7 | −3.4 | −0.8 | 48.3
16 | CN(Cc1ccccc1)C1CCN(C(C(=O)NCC[C@@H](Oc2ccc(C(F)(F)F)cc2)c2ccccc2)c2nc(-c3ccc(C(F)(F)F)cc3)no2)CC1 (some centres unmarked) [Compound 16] | – | 21.3 | 6.9 | – | – | – | – | –
